This note sets out measurements from patent US20240108634A1, “COMPOSITIONS AND METHODS FOR INHIBITING YAP” (The United States Government as represented by the …, priority 2021, published 2024).

Holding throughout (assay type): cell-based, human
Assay [1] deals with LN229 and GBM39 cells. As to the kind of experiment: Annexin V-FITC/PI apoptosis by flow cytometry. Conditions: LN229 and GBM39, 48 h. The source says:
(§1) Cells were layered in soft agar to evaluate anchorage-independent growth in the presence of the indicated concentrations of inhibitor and colonies counted following 14 days of growth. Representative crystal violet stained images are shown below. Data represent mean+S.D. of three independent experiments. […] Cells were placed in Boyden chambers and allowed to migrate towards BSA (white bars), vitronectin (light yellow bars), or fibronectin (dark yellow bars) (*, P<0.05; n=3). […] Representative crystal violet stained images are shown (200×). Data represent mean+S.D. of three independent experiments. […] Graphical data shown below represent mean+S.D. (late apoptosis; annexin V-positive, PI-positive) of three independent experiments.
(§2) Cell proliferation, clonogenic, migration, invasion and apoptosis assays. Cell proliferation was determined via Cell Titer-Glo® luminescent cell assays (Promega). Clonogenic assays were done by plating a total of 1,000 cells per well in 24-well plates in a total volume of 400 μL using a two-layered soft agar system as previously described (Masri J, et al. (2007) Cancer Res 67: 11712-11720). Cell migration assays were conducted using precoated modified Boyden chambers as previously described (Benavides-Serrato A, et al. (2017) PLoS One 12: e0176599). […]
(A flow cytometer gives signals particle by particle.)

The next assay relates to T98G cells. As to the kind of experiment: Cell Titer-Glo sensitivity of T98G cells with YAP1 knockdown or overexpression. The conditions noted are these: 72 h. The source says: Nuclear and cytoplasmic fractions were immunoblotted for YAP, HSP90 and lamin B2. FIG. 4B show quantification of nuclear YAP expression levels from a as determined by densitometric analyses. Relative nuclear YAP1 expression in U87 cells was arbitrarily assigned a value of 1. Nuclear YAP expression in the cell lines is shown as mean+S.D., n=3. […] Relative nuclear YAP expression was obtained from FIG. 4B above. […] Data represent mean±S.D. of three independent experiments (*, P<0.05).
Cell proliferation, clonogenic, migration, invasion and apoptosis assays. Cell proliferation was determined via Cell Titer-Glo® luminescent cell assays (Promega). Clonogenic assays were done by plating a total of 1,000 cells per well in 24-well plates in a total volume of 400 μL using a two-layered soft agar system as previously described (Masri J, et al. (2007) Cancer Res 67: 11712-11720). […]
Increased YAP expression directly correlates with NSC682769 sensitivity in GBM cells. […] To examine whether differences in YAP expression may alter sensitivity to NSC682769, the relative expression of nuclear versus cytoplasmic YAP was determined in a panel of GBM lines (FIG. 4A). […] Cell viability was then determined using ATP-release assays on these lines over a wide range of NSC682769 concentrations and IC50s calculated (FIG. 4C). […]
(Cellular ATP, detected with luciferase, serves as a proxy for viable cell number.)

The test system of another assay is YAP localization. As to the kind of experiment: YAP cytoplasmic/nuclear localization (cell fractionation and immunofluorescence). The conditions noted are these: 50 nM, 6 h. The method, then:
Levels of total YAP were determined via ELISA. […] Immunoprecipitates were immunoblotted for the indicated proteins. […] Cells were treated with the indicated concentrations of inhibitor for 18 h and mRNA extracted for real time RT-PCR analyses. Measurements were performed in quadruplicate and means and+S.D. are shown. […] […] Cytoplasmic versus nuclear material was subsequently immunoblotted for the indicated proteins. […] Values in top right corner of panels correspond to the percentage of nuclear localized YAP. Cells were grown on coverslips and treated with NSC682769. Cells were permeabilized and stained using primary antibody to YAP1 and FITC-conjugated secondary. Nuclei were stained with DAPI. Scale bar, 20 μm.
Surface plasmon resonance (SPR), ELISA, YAP-TEAD reporter activity, cellular fractionation, and immunofluorescence analyses. SPR experiments were carried out on a Nicoya OpenSPR™ instrument using immobilized YAP on a carboxyl-coated sensor. Binding was observed as the change in response units (RU) as analyte was injected at a flow rate of 10 μl/min at 25° C. TraceDrawer™ was used for kinetic analyses. The PathScan® total-YAP ELISA kit was obtained from Cell Signaling and used according to the manufacturer's instructions. YAP-TEAD reporter activity was determined as previously described (Kim N G, Gumbiner B M (2015) J Cell Biol 210: 503-515). HOP-flash contains multiple copies of wild-type TEAD-binding sites with a minimal promoter upstream of a luciferase reporter gene. Luciferase activity was measured via a luciferase assay system (Promega). Nuclear-cytoplasmic fractionation was performed according to Dignam et al. (Dignam J D, et al. (1983) Nucleic Acids Res 11: 1475-1489). Briefly, the buffers used were kept on ice and centrifugations were done at 4° C. with soft braking. After a single wash with PBS, cells were scraped with PBS (containing 1 mM DTT and 1× protease inhibitor) and harvested by centrifugation at 1000×g for 15 min. […] Cell lysis was monitored by trypan blue staining. […]

The test system of assay [2] is LN229 and GBM39 cells. The assay can be described thus: Boyden chamber migration towards vitronectin or fibronectin. Conditions: vitronectin or fibronectin versus BSA-coated chambers.
Description: as §1, §2

Turning to `COc1ccc(-c2cc(-c3ccccc3)nc3c2CC(=O)Nc2ccccc2-3)cc1OC` [NSC682769], the Apoptosis entry in the assay with LN229 and GBM39 cells [1] is “enhanced”. For the same compound, the “Sensitivity versus parental T98G line” value with T98G cells (T98G with YAP1 knocked down (shRNA)) is recorded as “relatively resistant”; in the assay on T98G cells (T98G with YAP1 overexpressed), “significantly more sensitive”. For the same compound, the “Relative amount of nuclear YAP (immunofluorescence)” value is 19% in the assay with YAP localization (GBM39 cells, untreated 53%) and 26% in the assay with YAP localization (LN229 cells, untreated 67%). Moreover, the “Nuclear versus cytoplasmic YAP by cell fractionation” value in the assay on YAP localization (LN229 or GBM39 cells) was “reduction of nuclear YAP and a concomitant accumulation of cytoplasmic YAP”. Also, in the assay with LN229 and GBM39 cells [2], the Cell migration entry is “inhibited the number of cells capable of migrating”.
